From patent publication US4156724A, “N-acylamino-alpha-arylacetamido cephalosporins and antibacterial compositions and methods containing them” (Sumitomo Chemical Company, Limited, priority 1974, dated 1979)
Values after ≈ are worked out from the molar mass of the structure shown. Read-outs that look alike come from different tables or passages of the source.

Legend:
Format in all cases: cell-based
[1] = test system: Staphylococcus aureus 209 P; assay: Minimum Inhibitory Concentration, Staphylococcus aureus 209 P; details: for MIC: read-out: Minimum Inhibitory Concentration
Protocol: (§1) anti-microbial activity tests were carried out on the compounds obtained in the Examples.

[2] = test system: Staphylococcus aureus FS 289; assay: Minimum Inhibitory Concentration, Staphylococcus aureus FS 289
Protocol: as §1
*Staphylococcus aureus FS 289: strain resistant to penicillin

Escherichia coli NIHJ = assay: Minimum Inhibitory Concentration, Escherichia coli NIHJ; details: for MIC: read-out: Minimum Inhibitory Concentration
Protocol: as §1

[3] = test system: Klebsiella pneumoniae 602; assay: Minimum Inhibitory Concentration, Klebsiella pneumoniae 602
Protocol: as §1

[4] = test system: Enterobacter aerogeneus No. 75; assay: Minimum Inhibitory Concentration, Enterobacter aerogeneus No. 75
Protocol: as §1

Proteus vulgaris HX 19 = assay: Minimum Inhibitory Concentration, Proteus vulgaris HX 19
Protocol: as §1

[5] = test system: Pseudomonas aeruginosa 104; assay: Minimum Inhibitory Concentration, Pseudomonas aeruginosa 104
Protocol: as §1

Serratia No. 72 = assay: Minimum Inhibitory Concentration, Serratia No. 72
Protocol: as §1

[6] = FS289, Staphylococcus aureus FS 289, strain resistant to penicillin, read-out: Minimum Inhibitory Concentration
[7] = Klebsiella pneumoniae, 602, Klebsiella pneumoniae 602, read-out: Minimum Inhibitory Concentration
[8] = Enterobacter aerogeneus No. 75, read-out: Minimum Inhibitory Concentration
[9] = HX19, Proteus vulgaris HX 19, read-out: Minimum Inhibitory Concentration
[10] = Pseudomonas aeruginosa 104, read-out: Minimum Inhibitory Concentration
[11] = Staphylococcus aureus, FS289, read-out: Minimum Inhibitory Concentration

Compound | MIC ([1]; Staphylococcus aureus 209 P) [µg/mL] | MIC [2, 6] [µg/mL] | MIC (Escherichia coli NIHJ; Escherichia coli NIHJ) [µg/mL] | MIC [3, 7] [µg/mL] | MIC [4, 8] [µg/mL] | MIC (Proteus vulgaris HX 19; [9]) [µg/mL] | MIC [5, 10] [µg/mL] | MIC (Serratia No. 72) [µg/mL] | further results
CC(=O)OCC1=C(C(=O)O)N2C(=O)C(NC(=O)C(NC(=O)c3cnc4cccnc4c3O)c3ccc(CO)cc3)C2SC1 (racemic) [Example 89, 7-[DL-α-(4-Hydroxy-1,5-naphthyridine-3-carbonamido)-α-p-hydroxymethylphenylacetamido]cephalosporanic Acid] | 1.56 (≈ 2.57 µM) | 6.25 (≈ 10.3 µM) | 3.13 (≈ 5.15 µM) | 1.56 (≈ 2.57 µM) | 6.25 (≈ 10.3 µM) | 0.78 (≈ 1.28 µM) | 6.25 (≈ 10.3 µM) | 50 (≈ 82.3 µM) | –
Cc1nnc(SCC2=C(C(=O)O)N3C(=O)C(NC(=O)C(NC(=O)c4cnccc4O)c4ccc(CO)cc4)C3SC2)s1 (racemic) [Example 90, 7-[DL-α-(4-Hydroxypyridine-3carbonamido)-α -p-hydroxymethylphenylacetamido]-3-(2-methyl-1,3,4-thiadiazol-5-yl)thiomethyl-3-cephem-4-carboxylic Acid] | 0.78 (≈ 1.24 µM) | 6.25 (≈ 9.94 µM) | 12.5 (≈ 19.9 µM) | 25 (≈ 39.8 µM) | 12.5 (≈ 19.9 µM) | 0.39 (≈ 0.62 µM) | 12.5 (≈ 19.9 µM) | > 200 | –
CC(=O)OCC1=C(C(=O)O)N2C(=O)[C@@H](NC(=O)[C@H](N)c3ccccc3)[C@H]2SC1 [CEG, reference compound] | 1.56 (≈ 3.85 µM) | 12.5 (≈ 30.8 µM) | 12.5 (≈ 30.8 µM) | 3.13 (≈ 7.72 µM) | 50 (≈ 123 µM) | 12.5 (≈ 30.8 µM) | > 200 | > 200 | –
CC(=O)OCC1=C(C(=O)O)N2C(=O)[C@@H](NC(=O)Cc3cccs3)[C@H]2SC1 [CET, reference compound] | – | – | – | – | – | – | – | > 200 | MIC ([1]; Staphylococcus aureus, 209P): 0.1 µg/mL (≈ 0.252 µM); MIC [2, 11]: 0.78 µg/mL (≈ 1.97 µM); MIC (Escherichia coli NIHJ; Escherichia coli): 12.5 µg/mL (≈ 31.5 µM); MIC ([3]; Klebsiella pneumoniae, 602, read-out: Minimum Inhibitory Concentration): 0.78 µg/mL (≈ 1.97 µM); MIC ([4]; Enterobacter, NO.75, read-out: Minimum Inhibitory Concentration): > 200 µg/mL; MIC (Proteus vulgaris HX 19; Proteus vulgaris, HX19, read-out: Minimum Inhibitory Concentration): 3.13 µg/mL (≈ 7.9 µM); MIC ([5]; Pseudomonas aeruginosa, 104, read-out: Minimum Inhibitory Concentration): > 200 µg/mL
Cc1nnc(SCC2=C(C(=O)O)N3C(=O)[C@@H](NC(=O)Cn4cnnn4)[C@H]3SC2)s1 [CEZ, reference compound] | 0.2 (≈ 0.44 µM) | – | – | 0.78 (≈ 1.72 µM) | 100 (≈ 220 µM) | 6.25 (≈ 13.8 µM) | > 200 | > 200 | MIC [2, 11]: 1.56 µg/mL (≈ 3.43 µM); MIC (Escherichia coli NIHJ; Escherichia coli): 1.56 µg/mL (≈ 3.43 µM)
CC(=O)OCC1=C(C(=O)O)N2C(=O)[C@@H](NC(=O)[C@H](NC(=O)c3cnccc3O)c3ccc(NC(N)=O)cc3)[C@H]2SC1 [Example 1, 7-[D-α-(4-Hydroxypyridine-3-carboxyamido)-α-p-ureidophenylacetamido]cephalosporanic Acid] | 0.39 (≈ 0.667 µM) | 3.13 (≈ 5.35 µM) | 12.5 (≈ 21.4 µM) | 12.5 (≈ 21.4 µM) | 25 (≈ 42.8 µM) | 0.2 (≈ 0.342 µM) | 6.25 (≈ 10.7 µM) | > 200 | –
CC(=O)OCC1=C(C(=O)[O-])N2C(=O)C(NC(=O)C(NC(=O)c3ccnnc3O)c3ccc(NC(N)=O)cc3)C2SC1.[Na+] (stereo not shown) [Example 4] | – | – | – | – | – | – | – | – | Minimum Inhibitory Concentration ([1]; Staphylococcus aureus 209 P): 0.39 µg/mL; Minimum Inhibitory Concentration ([2]; Staphylococcus aureus FS 289, strain resistant to penicillin): 6.25 µg/mL; Minimum Inhibitory Concentration (Escherichia coli NIHJ; Escherichia coli NIHJ): 6.25 µg/mL; Minimum Inhibitory Concentration ([3]; Klebsiella pneumoniae 602): 6.25 µg/mL; Minimum Inhibitory Concentration ([4]; Enterobacter aerogeneus No. 75): 50 µg/mL; Minimum Inhibitory Concentration (Proteus vulgaris HX 19; Proteus vulgaris HX 19): 0.2 µg/mL; Minimum Inhibitory Concentration ([5]; Pseudomonas aeruginosa 104): 25 µg/mL; Minimum Inhibitory Concentration (Serratia No. 72): 100 µg/mL
CC(=O)OCC1=C(C(=O)O)N2C(=O)[C@@H](NC(=O)[C@H](NC(=O)c3cnc(O)nc3O)c3ccc(NC(N)=O)cc3)[C@H]2SC1 [Example 6] | 0.39 (≈ 0.648 µM) | 6.25 (≈ 10.4 µM) | 12.5 (≈ 20.8 µM) | 12.5 (≈ 20.8 µM) | 25 (≈ 41.6 µM) | 0.2 (≈ 0.332 µM) | 12.5 (≈ 20.8 µM) | 200 (≈ 332 µM) | –
CC(=O)OCC1=C(C(=O)O)N2C(=O)[C@@H](NC(=O)[C@H](NC(=O)c3cnc4cccnc4c3O)c3ccc(NC(N)=O)cc3)[C@H]2SC1 [Example 7] | 0.78 (≈ 1.23 µM) | 6.25 (≈ 9.83 µM) | 3.13 (≈ 4.92 µM) | 3.13 (≈ 4.92 µM) | 6.25 (≈ 9.83 µM) | 0.78 (≈ 1.23 µM) | 6.25 (≈ 9.83 µM) | 50 (≈ 78.7 µM) | –
Cc1nnc(SCC2=C(C(=O)O)N3C(=O)[C@@H](NC(=O)[C@H](NC(=O)c4cnccc4O)c4ccc(NC(N)=O)cc4)[C@H]3SC2)s1 [Example 12, 7-[D-α-(4-Hydroxypyridine-3-carboxyamido)-α-(p-ureidophenyl)acetamido]-3-(2-methyl-1,3,4-thiadiazol-5-yl)thiomethyl-3-cephem-4-carboxylic Acid] | 0.39 (≈ 0.594 µM) | 6.25 (≈ 9.52 µM) | 6.25 (≈ 9.52 µM) | 6.25 (≈ 9.52 µM) | 12.5 (≈ 19 µM) | 0.1 (≈ 0.152 µM) | 6.25 (≈ 9.52 µM) | 50 (≈ 76.1 µM) | –

More lines, in order of falling MIC ([1]; Staphylococcus aureus 209 P), values ahead:

MIC ([1]; Staphylococcus aureus 209 P) [µg/mL] | MIC [2, 6] [µg/mL] | MIC (Escherichia coli NIHJ; Escherichia coli NIHJ) [µg/mL] | MIC [3, 7] [µg/mL] | MIC [4, 8] [µg/mL] | MIC (Proteus vulgaris HX 19; [9]) [µg/mL] | MIC [5, 10] [µg/mL] | MIC (Serratia No. 72) [µg/mL] | Compound | further results
0.78 (≈ 1.4 µM) | 6.25 (≈ 11.2 µM) | 25 (≈ 44.9 µM) | 25 (≈ 44.9 µM) | 25 (≈ 44.9 µM) | 0.39 (≈ 0.701 µM) | 12.5 (≈ 22.5 µM) | > 200 | CC(=O)OCC1=C(C(=O)O)N2C(=O)C(NC(=O)C(NC(=O)c3cnccc3O)c3ccc(CO)cc3)C2SC1 (racemic) [Example 88, 7-[DL-α-(4-Hydroxypyridine-3-carbonamido)-α-p-hydroxymethylphenylacetamido]cephalosporanic Acid] | –
0.78 (≈ 1.2 µM) | 6.25 (≈ 9.62 µM) | 6.25 (≈ 9.62 µM) | 12.5 (≈ 19.2 µM) | 12.5 (≈ 19.2 µM) | 0.39 (≈ 0.6 µM) | 6.25 (≈ 9.62 µM) | 50 (≈ 77 µM) | CC(=O)OCC1=C(C(=O)O)N2C(=O)[C@@H](NC(=O)[C@H](NC(=O)c3cnc4nc(C)ccc4c3O)c3ccc(NC(N)=O)cc3)[C@H]2SC1 [Example 8] | –
0.78 (≈ 1.23 µM) | 6.25 (≈ 9.83 µM) | 12.5 (≈ 19.7 µM) | 12.5 (≈ 19.7 µM) | 12.5 (≈ 19.7 µM) | 0.39 (≈ 0.614 µM) | 12.5 (≈ 19.7 µM) | 50 (≈ 78.7 µM) | CC(=O)OCC1=C(C(=O)O)N2C(=O)[C@@H](NC(=O)[C@H](NC(=O)c3nnc4ccccc4c3O)c3ccc(NC(N)=O)cc3)[C@H]2SC1 [Example 9] | –
0.39 (≈ 0.667 µM) | 6.25 (≈ 10.7 µM) | 12.5 (≈ 21.4 µM) | 12.5 (≈ 21.4 µM) | 25 (≈ 42.8 µM) | 0.39 (≈ 0.667 µM) | 6.25 (≈ 10.7 µM) | > 200 | CC(=O)OCC1=C(C(=O)O)N2C(=O)[C@@H](NC(=O)[C@H](NC(=O)c3cnccc3O)c3cccc(NC(N)=O)c3)[C@H]2SC1 [Example 2] | –
0.39 (≈ 0.667 µM) | 6.25 (≈ 10.7 µM) | 25 (≈ 42.8 µM) | 25 (≈ 42.8 µM) | 25 (≈ 42.8 µM) | 0.39 (≈ 0.667 µM) | 12.5 (≈ 21.4 µM) | > 200 | CC(=O)OCC1=C(C(=O)O)N2C(=O)[C@@H](NC(=O)[C@H](NC(=O)c3cccnc3O)c3ccc(NC(N)=O)cc3)[C@H]2SC1 [Example 3] | –
0.39 (≈ 0.666 µM) | 6.25 (≈ 10.7 µM) | 12.5 (≈ 21.3 µM) | 12.5 (≈ 21.3 µM) | 50 (≈ 85.4 µM) | 0.39 (≈ 0.666 µM) | 12.5 (≈ 21.3 µM) | 200 (≈ 342 µM) | CC(=O)OCC1=C(C(=O)O)N2C(=O)[C@@H](NC(=O)[C@H](NC(=O)c3cncnc3O)c3ccc(NC(N)=O)cc3)[C@H]2SC1 [Example 5] | –
0.39 (≈ 0.609 µM) | 6.25 (≈ 9.76 µM) | 6.25 (≈ 9.76 µM) | 3.13 (≈ 4.89 µM) | 12.5 (≈ 19.5 µM) | 0.2 (≈ 0.312 µM) | 6.25 (≈ 9.76 µM) | 50 (≈ 78 µM) | Cn1nnnc1SCC1=C(C(=O)O)N2C(=O)[C@@H](NC(=O)[C@H](NC(=O)c3cnccc3O)c3ccc(NC(N)=O)cc3)[C@H]2SC1 [Example 13, 7-[D-α-(4-Hydroxypyridine-3-carboxyamido)-α-(p-ureidophenyl)acetamido]-3-(1-methyltetrazol-5-yl)-thiomethyl-3-cephem-4-carboxylic Acid] | –
